One may read the IC50 as the point on the concentration scale where inhibition reaches its midpoint.

This assay deals with T1, Tyrosine-protein phosphatase non-receptor type 1 (Homo sapiens, UniProt P18031).
T1 sequence (P18031 whole entry): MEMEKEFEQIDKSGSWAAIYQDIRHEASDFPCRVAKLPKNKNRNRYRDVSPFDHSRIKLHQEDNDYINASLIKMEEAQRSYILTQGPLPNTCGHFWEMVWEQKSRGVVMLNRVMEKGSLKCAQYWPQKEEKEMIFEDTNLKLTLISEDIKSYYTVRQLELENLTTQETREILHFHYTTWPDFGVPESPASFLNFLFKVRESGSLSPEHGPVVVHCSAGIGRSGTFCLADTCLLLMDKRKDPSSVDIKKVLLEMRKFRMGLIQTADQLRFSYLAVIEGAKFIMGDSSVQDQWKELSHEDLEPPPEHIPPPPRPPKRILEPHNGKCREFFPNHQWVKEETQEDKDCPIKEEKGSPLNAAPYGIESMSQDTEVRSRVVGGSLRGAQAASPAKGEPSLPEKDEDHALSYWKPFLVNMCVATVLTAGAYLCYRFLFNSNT
Kind of assay: Inhibition of human recombinant PTP1B after 30 mins.
Turning to `CCCCCCCCCCCCCCCC(=O)C1=C(O)[C@@H](CO)OC1=O`, the IC50 was 4.1 µM. As for `C[C@@]1(CO)CC[C@]2(C(=O)O)CC[C@]3(C)C(=CC[C@@H]4[C@@]5(C)CC[C@@H](O)[C@](C)(CO)[C@@H]5CC[C@]43C)[C@@H]2C1`, the IC50 was greater than 30 µM. Consider `C[C@H]1[C@H](C)CC[C@]2(C(=O)O)CC[C@]3(C)C(=CC[C@@H]4[C@@]5(C)CC[C@@H](O)[C@](C)(CO)[C@@H]5CC[C@]43C)[C@H]12`, for which the IC50 is greater than 30 µM. For the compound `C[C@@H]1CC[C@]2(C(=O)O)CC[C@]3(C)C(=CC[C@@H]4[C@@]5(C)CCC(=O)[C@](C)(CO)[C@@H]5CC[C@]43C)[C@@H]2[C@]1(C)O`, the IC50 came out at 8.1 µM. Next, `C[C@H]1[C@H](C)CC[C@]2(C(=O)O)CC[C@]3(C)C(=CC[C@@H]4[C@@]5(C)CC[C@H](O)[C@](C)(CO)[C@@H]5CC[C@]43C)[C@H]12`: 12.8 µM. With `C[C@@H]1CC[C@]2(C(=O)O)CC[C@]3(C)C(=CC[C@@H]4[C@@]5(C)CC[C@@H](O)[C@](C)(CO)[C@@H]5CC[C@]43C)[C@@H]2[C@]1(C)O` [BARBINERVIC ACID], the half-maximal inhibitory concentration (IC50) is greater than 30 µM.

In the case of `C=C1CC[C@]2(C(=O)O)CC[C@]3(C)C(=CC[C@@H]4[C@@]5(C)CC[C@@H](O)[C@](C)(CO)[C@@H]5CC[C@]43C)[C@@H]2[C@]1(C)O` [COUSSARIC ACID], the IC50 is greater than 30 µM. Next, `C=C1CC[C@]2(C(=O)O)CC[C@]3(C)C(=CC[C@@H]4[C@@]5(C)CC[C@@H](O)[C@](C)(C(=O)O)[C@@H]5CC[C@]43C)[C@@H]2[C@]1(C)O` [DIOSPYRIC ACID A]: greater than 30 µM; `C[C@@H]1CC[C@]2(C(=O)O)CC[C@]3(C)C(=CC[C@@H]4[C@@]5(C)CC[C@@H](O)[C@](C)(C(=O)O)[C@@H]5CC[C@]43C)[C@@H]2[C@]1(C)O` [DIOSPYRIC ACID B]: greater than 30 µM.

`CC1(C)CC[C@]2(C(=O)O)CC[C@]3(C)C(=CC[C@@H]4[C@@]5(C)CCC(=O)C(C)(C)[C@@H]5CC[C@]43C)[C@@H]2C1` [OLEANONIC ACID]: the IC50 turned out to be 3.5 µM. Next, `C[C@@H]1CC[C@]2(C(=O)O)CC[C@]3(C)C(=CC[C@@H]4[C@@]5(C)CC[C@H](O)C(C)(C)[C@@H]5CC[C@]43C)[C@@H]2[C@]1(C)O` [POMOLIC ACID]: 3.9 µM; `C[C@@H]1CC[C@]2(C(=O)O)CC[C@]3(C)C(=CC[C@@H]4[C@@]5(C)CC[C@H](O)[C@](C)(CO)[C@@H]5CC[C@]43C)[C@@H]2[C@]1(C)O` [ROTUNGENIC ACID]: 10.9 µM; `CC1(C)CC[C@]2(C(=O)O)CC[C@]3(C)C(=CC[C@@H]4[C@@]5(C)CC[C@@H](O)[C@](C)(CO)[C@@H]5CC[C@]43C)[C@@H]2C1` [SCUTELLARIC ACID]: greater than 30 µM.

Consider `CC1(C)CC[C@]2(C(=O)O)CC[C@]3(C)C(=CC[C@@H]4[C@@]5(C)CC[C@H](O)[C@](C)(CO)[C@@H]5CC[C@]43C)[C@@H]2[C@@H]1O` [SPATHODIC ACID], for which the IC50 is 18.8 µM.
